The test system of experiment [1] is HeLa cells. The experiment in a line: Western blot of PML protein level. The format is cell-based, human. To be noted: 5 μM. As to the method: FIGS. 38A, 38B, 38C, and 38D display cellular activity of peptide 37. (FIG. 38A) Cellular uptake of peptides 1, 37, and 46 (5 μM) by HeLa cells as analyzed by flow cytometry. MFI, mean fluorescence intensity; none, untreated cells (no peptide). (FIG. 38B) Anti-proliferative effect of peptides 37, 46, and 47 on HeLa cells as measured by MTT assay. (FIG. 38C) Western blots showing the effect of peptides 1, 37 and 47 on the protein level of PML in HeLa cells. β-Actin was used as loading control. (FIG. 38D) Quantification of western blot results from (FIG. 38C). Data reported were after background subtraction and represent the mean±SD from 3 independent experiments.
Finally, to ascertain that Pin1 is the molecular target of peptide 37 in vivo, the intracellular protein level of a well-established Pin1 substrate, […] (PML), was examined by western blot analysis. Pin1 negatively regulates the PML level in a phosphorylation-dependent manner and inhibition of Pin1 activity is expected to stabilize PML and increase its intracellular level. […] The effect was already significant at 0.2 μM inhibitor (1.8-fold increase in the PML level) and plateaued at ˜1 μM (3.3-fold increase). Again, bicyclic peptide 47 had no effect under the same conditions, while peptide 1 (the positive control, at 5 μM) increased the PML level by 3.1-fold.

For experiment [2], the target named is T1, Pin1 (Homo sapiens, UniProt Q13526, S16A/Y23A).
T1 construct: The full-length human S16A/Y23A mutant Pin1 was expressed and purified from E. coli; made in house
T1 sequence (Q13526 whole entry S16A/Y23A): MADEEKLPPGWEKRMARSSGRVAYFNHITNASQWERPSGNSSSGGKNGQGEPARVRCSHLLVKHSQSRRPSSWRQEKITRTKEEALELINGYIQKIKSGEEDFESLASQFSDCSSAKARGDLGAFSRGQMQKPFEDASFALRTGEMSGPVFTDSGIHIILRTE
As to the kind of experiment: Fluorescence anisotropy binding to Pin1. How it is done:
The gene coding for the catalytic domain of PTP1B (amino acids 1-321) was amplified by the polymerase chain reaction using PTP1B cDNA as template and oligonucleotides 5′-[…]-3′ and 5′-[…]-3′ as primers. […] Expression and purification of the ybbR-tagged PTP1B were carried out as previously described (Ren, L et al. Biochemistry 2011, 50, 2339-2356). […] The reaction mixture was passed through a G-25 fast-desalting column equilibrated in 30 mM HEPES, pH 7.4, 150 mM NaCl to remove any free dye molecules. The full-length human S16A/Y23A mutant Pin1 was expressed and purified from E. coli as previously described (Liu, T et al. J. Med. Chem. 2010, 53, 2494-2501).
FA experiments were carried out by incubating 100 nM FITC-labeled peptide with varying concentrations of protein in 20 mM HEPES (pH 7.4), 150 mM NaCl, 2 mM magnesium acetate, and 0.1% bovine serum albumin (BSA) for 2 h at room temperature. The FA values were measured on a Molecular Devices Spectramax M5 plate reader, with excitation and emission wavelengths at 485 and 525 nm, respectively. Equilibrium dissociation constants (KD) were determined by plotting the FA values as a function of protein concentration and fitting the curve to the following equation:
(§1) [formula] where Y is the FA value at a given protein concentration x, L is the peptide concentration, Qb/Qf is the correction factor for fluorophore-protein interaction, Amax is the maximum FA value when all of the peptides are bound to protein, while Amin is the minimum FA value when all of the peptides are free. FA competition assay was performed by incubating 100 nM FITC-labeled Pin1 inhibitor 5 with 1 μM Pin1, followed by the addition of 0-5 μM unlabeled inhibitor. The FA values were measured similarly on a pate reader. IC50 values were obtained by plotting the FA values against the competitor concentration and curve fitting using the four-parameter dose-response inhibition equation (Prism 6, GraphPad).

Experiment [3] concerns HeLa cells. The experiment in a line: Cellular uptake by flow cytometry. The format is cell-based, human. The settings on record: 5 μM FITC-labeled peptide, 2 h. As to the method:
The cellular uptake efficiency of peptide 37, peptide 1, and a previously reported membrane-impermeable monocyclic Pin1 inhibitor (Table 18, peptide 46) was assessed by incubating HeLa cells with the FITC-labeled peptides (5 μM) for 2 h and quantifying the total intracellular fluorescence by flow cytometry analysis. […] By contrast, cells treated with peptides 1 and 37 gave MFI values of 2562 and 8792, respectively. Thus, peptide 37 is internalized by HeLa cells ˜4-fold more efficiently than peptide 1. Presumably, the negative charged phosphate group of peptide 1 interacted electrostatically with the positively charged CPP motif and reduced the cellular uptake efficiency of the latter.
Background: In flow cytometry, cells or beads pass a laser one at a time.

Experiment [4] has as its system HeLa cells. The settings on record: read-out: IC50 of HeLa cell growth; MTT.
Excerpt: The effect of peptide 37 on the growth of HeLa cells was examined by using the MTT cell viability assay.
Experiment [5] deals with T1, Pin1. The experiment in a line: FA competition with FITC-labeled inhibitor 5. The format is binding. The settings on record: 0.1 μM labeled inhibitor 5, 1 μM Pin1. How it is done: FIGS. 32A and 32B display the competition for binding to Pin1 by inhibitors 5 and 7. Each reaction contained 0.1 μM FITC-labeled inhibitor 5, 1 μM Pin1, and 0-5 μM unlabeled inhibitor 5 […] or inhibitor 7 (FIG. 32B) and the FA value was measured and plotted against the competitor concentration.
as §1

Experiment [6] deals with HeLa cells. As to the kind of experiment: MTT proliferation assay with Pin1 inhibitors. The experiment is classed as cell-based, human. To be noted: 3-day treatment at 20 μM. As to the method: HeLa cells (100 μL/each well, 5×10^4 cells/mL) were seeded in a 96-well culture plate and allowed to grow overnight in DMEM supplemented with 10% FBS. […] After that, 10 μL of a MTT stock solution (5 mg/mL) was added into each well. The plate was incubated at 37° C. for 4 h and 100 μL of SDS-HCl solubilizing solution was added into each well, followed by thorough mixing. The plate was incubated at 37° C. overnight and the absorbance of the formazan product was measured at 570 nm on a Molecular Devices Spectramax M5 plate reader. Each experiment was performed in triplicates and the cells untreated with peptide were used as control.
(In general: Formazan colour is commonly taken as a measure of viable cells.)

The test system of experiment [7] is mouse ventricular cardiac myocytes. The experiment in a line: Live-cell confocal microscopy of cardiomyocytes. The format is cell-based. To be noted: 5 μM peptide or 6 μM conjugate, 3 h. How it is done:
FIGS. 35A, 35B, 35C, and 35D display live cell confocal images of mouse ventricular cardiac myocytes after treatment for 3 h with 5 μM c(FΦRRRRQ)-K(FITC) (FIG. 35A) and c(fΦRrRrQ)-K(FITC) (FIG. 35B).
The disclosed cyclic CPPs are very effective in delivering proteins into cardiomyocytes. Fluorescein isothiocyanate (FITC)-labeled cyclic CPPs [c(FΦRRRRQ)-K(FITC)-NH2 and c(fΦRrRrQ)-K(FITC)-NH2] were synthesized and their internalization into mouse ventricular cardiac myocytes was tested by treating the cells with 5 μM FITC-labeled peptide for 3 h. After washing away the extracellular peptides, the internalization of CPPs was examined by fluorescent live-cell confocal microscopy. […] Whether the cyclic CPPs are capable of transporting full-length proteins into cardiac muscle cells was tested. Calmodulin (with an engineered Thr5Cys), a multifunctional calcium-binding messenger protein, was conjugated to c(FΦRRRRQ)-C-NH2 at the Cys residue near N-terminus through a disulfide bond. The disulfide exchange reaction is highly specific, efficient, and reversible. Further, upon entering the cytosol of cells, the disulfide linkage is expected to be reduced to release the native protein (FIG. 35c). The CPP-protein conjugate was chemically labeled on amino-groups with cyanine3, which permits visualization of the internalized calmodulin. […]

What is called Kd is the equilibrium constant for the complex coming apart. A word on the IC50: it is the concentration needed to halve the response being measured.

Starred links: 1 amine or outer side, 2 acyl side, 3 side chain; linkers in the order of their positions; H or OH if unused. Positions of bridges follow the written chain, without caps; N, C: chain ends. Non-standard residues stand in square brackets, D forms with d. Residues, ends and D or L forms follow the SMILES beside them. Trimesoyl = O=C(c1cc(C(=O)[*:2])cc(C(=O)[*:3])c1)[*:1]; d(pT) = C[C@H](OP(=O)(O)O)[C@@H](N)C(=O)O; 2Nal = N[C@@H](Cc1ccc2ccccc2c1)C(=O)O; Pip = O=C(O)[C@@H]1CCCCN1; Dap = NC[C@H](N)C(=O)O; Sar = CNCC(=O)O

On to `C[C@@H]1NC(=O)[C@H](CCCNC(=N)N)NC(=O)[C@H](Cc2ccc3ccccc3c2)NC(=O)[C@@H]2CCCCN2C(=O)[C@@H]([C@H](C)OP(=O)(O)O)NC(=O)CN(C)C(=O)[C@@H](C)NC(=O)c2cc3cc(c2)C(=O)NC[C@H](NC(=O)[C@@H](C)NC1=O)C(=O)N[C@@H](Cc1ccccc1)C(=O)N[C@@H](Cc1ccc2ccccc2c1)C(=O)N[C@@H](CCCNC(=N)N)C(=O)N[C@@H](CCCNC(=N)N)C(=O)N[C@@H](CCCNC(=N)N)C(=O)N[C@@H](CCCNC(=N)N)C(=O)N[C@H](C(=O)N[C@@H](CCCCN)C(N)=O)CNC3=O` [Peptide 1, bicyclo[Tm-(D-Ala-Sar-D-pThr-Pip-Nal-Arg-Ala-D-Ala)-Dap-(Phe-Nal-Arg-Arg-Arg-Arg-Dap)]-Lys] ([dA][Sar][d(pT)][Pip][2Nal]RA[dA][Dap]F[2Nal]RRRR[Dap]K-NH2; linker N-9-16 via Trimesoyl), for which the “Increase in the PML level” value in the experiment on HeLa cells [1] is 3.1 fold. Also, the “Improvement of inhibitor potency vs peptide 6” value at Pin1 [2] is around 2 fold. The Kd at Pin1 [2] (FITC-labeled peptide, FA analysis) stood at 72 nM. In addition, the “Mean fluorescence intensity (MFI)” value in the experiment with HeLa cells [3] is on record as 2562. In addition, the IC50 in the experiment on HeLa cells [4] was determined as 1800 nM. In addition, at Pin1 [5], the “Competition with FITC-labeled inhibitor 5 for binding to Pin1” value was “competed”. Also, in the experiment with HeLa cells [6], the “Inhibition of cell growth” value was 45%.
With c(fΦRrRrQ)-K(FITC)-NH2, in experiment [7], the “Internalization into cardiac muscle cells (confocal)” value is reported as “efficient internalization”.

The values are drawn from patent US10815276B2, “Cell penetrating peptides and methods of making and using thereof” (Entrada Therapeutics, Inc., priority 2014, dated 2020).
